According to patent US20230321083A1, “Inhibitors of GPR174 and Uses Thereof” (Omeros Corporation, priority 2016, published 2023):

Test system: human PBMCs
Assay: Cytokines in culture supernatants of stimulated human PBMCs (ELISA / LEGENDplex)
Assay type: cell-based
Protocol: The effect of compound #10 on IL-2 and IFN-γ production in human PBMCs was determined as follows. PBMCs from a single donor were adjusted to a density of 2×10^6 cells/mL, stimulated with 100 ng/mL of anti-CD3 and 100 ng/mL of anti-CD28 antibodies and treated with 1 μM, 3 μM, or 10 μM of compound #10. Supernatant from these cells was taken on day 2 post-stimulation and the levels of IL-2 and IFN-γ were determined by ELISA assay using Ready-SET-Go ELISA kits from Affimetrix Ebioscience according to the manufacturer's instructions.
The effect of compound #10 on IL-2 production in human PBMCs was determined as follows. […] Supernatant from these cells was taken on day 3 post-stimulation and the levels of IL-2 were determined by ELISA assay using Ready-SET-Go™ ELISA kits from Affimetrix Ebioscience and LEGENDplex™ bead-based immunoassays from BioLegend according to the manufacturer's instructions.
The effect of compound #10 on IL-2 production in human PBMC from each donor was determined as follows. PBMC from each donor were adjusted to a density of 2×10^6 cells/mL, stimulated with 100 ng/mL of anti-CD3 and 100 ng/mL of anti-CD28 antibodies and treated with 30 μM compound #10. Supernatant from these cells was taken on day 2 post-stimulation and the levels of IL-2 were determined by ELISA assay using LEGENDplex™ bead-based immunoassays from BioLegend (San Diego, CA) according to the manufacturer's instructions.
The effect of compound #10 on the production of a panel of additional cytokines (interleukin 5 (IL-5), interleukin 13 (IL-13), interleukin 6 (IL-6), interleukin 9 (IL-9), interleukin 10 (IL-10), interferon gamma (IFN-γ), tumor necrosis factor alpha (TNF-α), interleukine 17A (IL-17A), interleukin 17F (IL-17F), interleukin 4 (IL-4) and interleukin 22 (IL-22)) in pooled human PBMC obtained from eight donors was determined as follows. PBMC from eight donors were pooled, then adjusted to a density of 2×10^6 cells/mL, stimulated with 100 ng/mL of anti-CD3 and 100 ng/mL of anti-CD28 antibodies and treated with 30 μM compound #10. Supernatant from these cells was taken on day 2 post-stimulation and the levels of IL-5, IL-13, IL-6, IL-9, IL-10, IFN-γ, TNF-α, IL-17A, IL-17F, IL-4 and IL-22 were determined by ELISA using LEGENDplex™ bead-based immunoassays from BioLegend (San Diego, CA) according to the manufacturer's instructions.

[1] = day 2, 30 μM, PBMC from eight donors, p<0.001
[2] = day 2, 30 μM, PBMC from eight donors, p<0.05

For CC1CCN(c2cc(N3CCN(S(=O)(=O)c4ccccc4)CC3)c([N+](=O)[O-])cc2F)CC1 [Compound 10], the “IL-6 in culture supernatants (fold over vehicle)” value [1] was “statistically significant fold increase”, the “IL-17A in culture supernatants (fold over vehicle)” value [1] was “statistically significant fold decrease” and the “IFN-γ in culture supernatants (fold over vehicle)” value [2] was “statistically significant fold increase”. For the same compound, the “IL-10 in culture supernatants (fold over vehicle)” value [2] was “statistically significant fold increase”, the “TNF-α in culture supernatants (fold over vehicle)” value [2] was “statistically significant fold increase” and the “IL-2 (pg/mL) in culture supernatants” value (day 3 post-stimulation, 3, 10, 30, 60 μM, single donor) was “increased IL-2 levels in culture supernatants in a dose-dependent manner”.
